In patent US8609836B2, “4-aryl-2-anilino-pyrimidines” (Janssen Pharmaceutica NV, priority 2008, dated 2013):
pIC50: −log10 of the molar value.

Experiments:
PLK4 (h) = PLK4 (h) (Homo sapiens, UniProt O00444); experiment: PLK-4 human kinase inhibition, scintillation proximity assay (SPA); assay type: biochemical; conditions: read-out: PLK4 pIC50 (converted)
CDK1/CyclinB (h) = CDK1/CyclinB (h) (Homo sapiens, UniProt P06493); experiment: CDK1/CyclinB human kinase inhibition, Invitrogen's FRET assay (Z'lyte); assay type: biochemical; conditions: read-out: CDK1 pIC50 (converted)
CDK1/CyclinB (h), sequence (P06493 whole entry): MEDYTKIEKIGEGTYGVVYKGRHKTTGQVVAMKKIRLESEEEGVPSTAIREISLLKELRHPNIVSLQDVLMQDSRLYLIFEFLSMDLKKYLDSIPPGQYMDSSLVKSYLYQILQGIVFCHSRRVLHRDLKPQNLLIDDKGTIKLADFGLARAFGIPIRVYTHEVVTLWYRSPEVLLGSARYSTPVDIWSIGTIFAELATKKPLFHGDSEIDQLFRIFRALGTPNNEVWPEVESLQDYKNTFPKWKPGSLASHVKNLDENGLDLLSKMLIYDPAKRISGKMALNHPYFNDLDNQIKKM
CDK1/CyclinB (h), sequence (P14635 whole entry partner): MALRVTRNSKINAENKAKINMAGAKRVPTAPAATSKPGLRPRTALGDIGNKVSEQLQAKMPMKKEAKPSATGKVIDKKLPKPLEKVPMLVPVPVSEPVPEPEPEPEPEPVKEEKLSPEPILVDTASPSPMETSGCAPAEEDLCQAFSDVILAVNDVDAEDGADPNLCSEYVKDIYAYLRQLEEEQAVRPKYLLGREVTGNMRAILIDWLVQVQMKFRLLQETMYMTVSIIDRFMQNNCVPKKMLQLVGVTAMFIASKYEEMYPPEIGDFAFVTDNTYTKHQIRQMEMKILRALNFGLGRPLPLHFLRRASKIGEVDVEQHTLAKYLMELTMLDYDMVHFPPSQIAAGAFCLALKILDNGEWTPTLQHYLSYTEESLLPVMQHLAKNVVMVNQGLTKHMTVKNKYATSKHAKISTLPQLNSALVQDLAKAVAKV
Outline: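 Read-out is the 460 nm/538 nm emission ratio (390 nm excitation) after a 60 min protease development step. Before that, 10 μM ATP and 2 μM Z'lyte Ser/Thr peptide 12 react 60 min at room temperature with 0.2 μg/ml human CDK1/CyclinB in Hepes pH 7.5 containing MgCl2, EGTA and Brij-35.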

PLK1 T210D (h) = PLK1 T210D (h) (Homo sapiens, UniProt P53350, T210D); experiment: PLK1 human kinase inhibition, SPA; assay type: biochemical; conditions: read-out: PLK1 pIC50 (converted)
PLK1 T210D (h), sequence (P53350 whole entry T210D): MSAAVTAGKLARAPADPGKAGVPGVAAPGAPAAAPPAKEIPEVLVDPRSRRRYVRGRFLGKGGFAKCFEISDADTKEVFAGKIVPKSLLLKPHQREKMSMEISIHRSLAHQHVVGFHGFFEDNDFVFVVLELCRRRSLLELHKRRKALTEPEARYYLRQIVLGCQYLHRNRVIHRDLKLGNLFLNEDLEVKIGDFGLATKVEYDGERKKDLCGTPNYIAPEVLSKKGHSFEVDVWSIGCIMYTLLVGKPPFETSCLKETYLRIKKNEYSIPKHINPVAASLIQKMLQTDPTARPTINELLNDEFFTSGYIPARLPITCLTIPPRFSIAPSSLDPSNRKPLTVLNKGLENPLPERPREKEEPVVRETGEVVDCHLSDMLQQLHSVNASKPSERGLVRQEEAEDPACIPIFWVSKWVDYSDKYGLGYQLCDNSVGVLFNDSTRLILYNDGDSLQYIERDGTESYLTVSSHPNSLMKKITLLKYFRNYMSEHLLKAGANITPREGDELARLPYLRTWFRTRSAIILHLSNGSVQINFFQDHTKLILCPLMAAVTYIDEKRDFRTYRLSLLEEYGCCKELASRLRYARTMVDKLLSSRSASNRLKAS
Outline: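 Kinase incubated 40 min at room temperature with 0.1 μM ATP (2 nM [γ-33P]ATP tracer), 2 μM biotinylated peptide, pH 8.0 Hepes buffer with 2 mM MnCl2 and 1 mM DTT; enzyme at 0.125 ng/ml. Stopped with EDTA; 33P-peptide bound to streptavidin scintillant beads and imaged.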

PLK2 (h) = PLK2 (h) (Homo sapiens, UniProt Q9NYY3); experiment: PLK2 human kinase inhibition, SPA; assay type: biochemical; conditions: read-out: PLK2 pIC50 (converted)
PLK2 (h), sequence (Q9NYY3 whole entry): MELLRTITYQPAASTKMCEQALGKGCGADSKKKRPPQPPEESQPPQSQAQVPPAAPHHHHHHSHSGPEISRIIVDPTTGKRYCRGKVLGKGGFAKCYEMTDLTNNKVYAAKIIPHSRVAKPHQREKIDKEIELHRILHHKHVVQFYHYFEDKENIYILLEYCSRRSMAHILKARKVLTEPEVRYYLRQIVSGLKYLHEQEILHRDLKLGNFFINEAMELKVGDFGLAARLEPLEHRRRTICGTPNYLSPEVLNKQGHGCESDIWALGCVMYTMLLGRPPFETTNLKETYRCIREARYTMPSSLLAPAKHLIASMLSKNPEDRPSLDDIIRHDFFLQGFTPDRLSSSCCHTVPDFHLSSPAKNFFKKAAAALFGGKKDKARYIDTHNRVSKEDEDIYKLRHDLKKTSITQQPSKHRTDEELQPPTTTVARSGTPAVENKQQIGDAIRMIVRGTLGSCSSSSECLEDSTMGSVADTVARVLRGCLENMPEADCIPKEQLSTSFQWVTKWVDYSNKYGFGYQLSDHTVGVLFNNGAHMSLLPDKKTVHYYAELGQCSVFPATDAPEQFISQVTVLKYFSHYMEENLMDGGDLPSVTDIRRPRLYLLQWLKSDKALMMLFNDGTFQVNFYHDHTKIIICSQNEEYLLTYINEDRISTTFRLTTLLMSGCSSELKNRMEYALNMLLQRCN
Outline: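 33P incorporation into a biotinylated peptide (2 μM) was captured on streptavidin PVT beads and imaged on Leadseeker. Enzyme at 30 μg/ml, ATP 0.1 μM with 2 nM [γ-33P]ATP, Hepes pH 8.0 with MnCl2 and DTT. Incubation was 20 min at room temperature.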

PLK3 (h) = PLK3 (h) (Homo sapiens, UniProt Q9H4B4); experiment: PLK3 human kinase inhibition, SPA; assay type: biochemical; conditions: read-out: PLK3 pIC50 (converted)
PLK3 (h), sequence (Q9H4B4 whole entry): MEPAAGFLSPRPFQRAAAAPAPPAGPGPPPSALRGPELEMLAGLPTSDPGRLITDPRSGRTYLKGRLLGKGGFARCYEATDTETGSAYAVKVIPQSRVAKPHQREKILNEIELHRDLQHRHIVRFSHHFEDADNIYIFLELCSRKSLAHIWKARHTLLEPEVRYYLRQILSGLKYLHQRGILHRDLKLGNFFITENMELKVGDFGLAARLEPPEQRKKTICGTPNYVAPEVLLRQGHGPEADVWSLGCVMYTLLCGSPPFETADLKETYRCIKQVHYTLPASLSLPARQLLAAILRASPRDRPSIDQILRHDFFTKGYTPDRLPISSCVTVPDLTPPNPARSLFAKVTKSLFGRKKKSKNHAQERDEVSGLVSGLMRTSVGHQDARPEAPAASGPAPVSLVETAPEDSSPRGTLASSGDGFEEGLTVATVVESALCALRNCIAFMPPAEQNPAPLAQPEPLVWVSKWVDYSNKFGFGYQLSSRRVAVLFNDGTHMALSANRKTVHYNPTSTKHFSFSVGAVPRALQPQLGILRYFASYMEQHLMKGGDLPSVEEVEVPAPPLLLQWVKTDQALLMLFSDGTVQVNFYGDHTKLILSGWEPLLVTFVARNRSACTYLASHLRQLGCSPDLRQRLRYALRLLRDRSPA
Outline: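 Radiometric scintillation proximity format at pH 8.0 (Hepes, MnCl2, DTT). The 2 μM biotin-peptide substrate is phosphorylated by PLK3 (h) (30 μg/ml) using 0.1 μM ATP traced with 33P, for 20 min at room temperature. EDTA stop; phosphopeptide captured on streptavidin beads and imaged.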

H1299 = experiment: Cellular proliferation assay (Alamar blue), H1299; assay type: cell-based; conditions: Homo sapiens, NCI-H1299; 10% FCS; 72 hours with compound; Alamar blue 4 h
Outline: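 This proliferation assay on NCI-H1299 cells used an initial 24-hour compound-free incubation after seeding, followed by 72 hours of compound treatment with 10% FCS serum at 37° C. and 5% (v/v) CO2. Viable cells were quantified by a 4 h Alamar blue incubation and fluorescent plate reading at 544 nm/590 nm, and effects were expressed relative to control cells.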

U87-MG = experiment: Cellular proliferation assay (Alamar blue), U87-MG; assay type: cell-based; conditions: Homo sapiens, U-87 MG; 10% FCS; 72 hours with compound; Alamar blue 6 h; read-out: U87-MG (cellular proliferation assay, Table 4) (converted)
Outline: (§1)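 After a 24 h compound-free attachment period, cells in 10% FCS medium are treated for 72 h at 37° C. Resazurin conversion is then quantified by fluorescence, with dye incubation lasting 4 h for HCT-116, 6 h for U87-MG and 24 h for A2780 or MDA-MB-231.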

A2780 = experiment: Cellular proliferation assay (Alamar blue), A2780; assay type: cell-based; conditions: Homo sapiens, 10% FCS, 72 hours with compound, Alamar blue 24 h, read-out: A2780 (cellular proliferation assay, Table 4) (converted)
Outline: as §1

MDA-MB-231 = experiment: Cellular proliferation assay (Alamar blue), MDA-MB-231; assay type: cell-based; conditions: Homo sapiens, 10% FCS, 72 hours with compound, Alamar blue 24 h, read-out: MDA/MB231 (cellular proliferation assay, Table 4) (converted)
Outline: as §1

PLK4 (h), sequence (O00444 whole entry): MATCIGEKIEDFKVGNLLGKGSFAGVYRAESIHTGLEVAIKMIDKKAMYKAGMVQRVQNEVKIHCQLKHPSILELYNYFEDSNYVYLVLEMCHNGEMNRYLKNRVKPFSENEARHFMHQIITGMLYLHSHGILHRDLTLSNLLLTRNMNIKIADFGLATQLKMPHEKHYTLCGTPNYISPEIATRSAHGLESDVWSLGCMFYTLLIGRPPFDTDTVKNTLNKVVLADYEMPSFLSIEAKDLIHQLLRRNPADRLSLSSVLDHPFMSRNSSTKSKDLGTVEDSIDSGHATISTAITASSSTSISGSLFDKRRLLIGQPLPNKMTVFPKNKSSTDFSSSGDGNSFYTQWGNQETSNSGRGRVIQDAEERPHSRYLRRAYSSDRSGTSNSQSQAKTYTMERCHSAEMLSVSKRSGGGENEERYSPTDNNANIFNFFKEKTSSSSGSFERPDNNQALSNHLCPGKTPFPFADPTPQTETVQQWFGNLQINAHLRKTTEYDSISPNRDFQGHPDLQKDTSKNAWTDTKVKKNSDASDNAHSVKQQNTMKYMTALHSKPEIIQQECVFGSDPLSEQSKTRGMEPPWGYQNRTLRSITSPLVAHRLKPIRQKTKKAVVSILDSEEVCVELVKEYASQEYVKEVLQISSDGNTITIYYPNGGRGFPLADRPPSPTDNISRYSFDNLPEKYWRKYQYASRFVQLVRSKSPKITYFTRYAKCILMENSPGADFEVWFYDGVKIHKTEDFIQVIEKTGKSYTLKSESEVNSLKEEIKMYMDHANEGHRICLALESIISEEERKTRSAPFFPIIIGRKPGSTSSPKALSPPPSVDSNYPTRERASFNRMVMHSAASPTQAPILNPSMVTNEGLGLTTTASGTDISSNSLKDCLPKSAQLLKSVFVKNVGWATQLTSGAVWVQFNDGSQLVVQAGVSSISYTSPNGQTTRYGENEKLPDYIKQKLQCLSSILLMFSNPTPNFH

O=C1NCc2cccc(c2)-c2ccnc(n2)Nc2ccc(N3CCOCC3)c(c2)CN2CCC1CC2 [Compound 95]
IC50 (PLK4 (h)): 6.61 µM | IC50 (CDK1/CyclinB (h)): 7.24 µM | IC50 (PLK1 T210D (h)): > 10 µM | IC50 (PLK2 (h)): > 10 µM | IC50 (PLK3 (h)): > 10 µM | pIC50 (H1299): < 5.00 | IC50 (U87-MG): > 10 µM | IC50 (A2780): > 10 µM | IC50 (MDA-MB-231): > 10 µM

COc1ccc2cc1CN(C)CCNC(=O)[C@H](CO)NCc1cc(cc(N3CCOCC3)c1)Nc1nccc-2n1 [Compound 105]
IC50 (PLK4 (h)): 0.447 µM | IC50 (CDK1/CyclinB (h)): > 10 µM | IC50 (PLK1 T210D (h)): > 10 µM | IC50 (PLK2 (h)): > 3.02 µM | IC50 (PLK3 (h)): > 10 µM | pIC50 (H1299): < 5.00 | IC50 (U87-MG): > 10 µM | IC50 (A2780): > 10 µM | IC50 (MDA-MB-231): > 10 µM

COc1ccc2cc1CN(C)CCCNC(=O)[C@H](CO)NCc1cccc(c1)Nc1nccc-2n1 [Compound 118]
IC50 (PLK4 (h)): 3.24 µM | IC50 (CDK1/CyclinB (h)): > 10 µM | IC50 (PLK1 T210D (h)): > 10 µM | IC50 (PLK2 (h)): > 3.02 µM | IC50 (PLK3 (h)): > 10 µM | pIC50 (H1299): < 5.00 | IC50 (U87-MG): > 10 µM | IC50 (A2780): > 10 µM | IC50 (MDA-MB-231): > 10 µM

O=C1NCc2cc(ccc2N2CCOCC2)Nc2nccc(n2)-c2cccc(c2)CCN2CCC[C@@H]12 [Compound 43]
IC50 (PLK4 (h)): 0.363 µM | IC50 (CDK1/CyclinB (h)): 0.427 µM | IC50 (PLK1 T210D (h)): > 10 µM | IC50 (PLK2 (h)): > 10 µM | IC50 (PLK3 (h)): > 10 µM | pIC50 (H1299): < 5.00 | IC50 (U87-MG): > 10 µM | IC50 (A2780): 2.51 µM | IC50 (MDA-MB-231): 5.62 µM

O=C1NCCNCc2ccc(cc2)-c2ccnc(n2)Nc2ccc(N3CCOCC3)c(c2)CN2CCC[C@@H]12 [Compound 157]
IC50 (PLK4 (h)): 1.07 µM | IC50 (CDK1/CyclinB (h)): > 10 µM | IC50 (PLK1 T210D (h)): > 10 µM | IC50 (PLK2 (h)): > 10 µM | IC50 (PLK3 (h)): 9.55 µM | pIC50 (H1299): 5.29 | IC50 (U87-MG): > 10 µM | IC50 (A2780): 6.46 µM | IC50 (MDA-MB-231): > 10 µM

O=C1NCCOc2cccc(c2)-c2ccnc(n2)Nc2ccc(N3CCOCC3)c(c2)CN2CCC1CC2 [Compound 94]
IC50 (PLK4 (h)): 2.63 µM | IC50 (CDK1/CyclinB (h)): > 10 µM | IC50 (PLK1 T210D (h)): > 10 µM | IC50 (PLK2 (h)): > 10 µM | IC50 (PLK3 (h)): > 10 µM | pIC50 (H1299): 5.09 | IC50 (U87-MG): > 10 µM | IC50 (A2780): > 10 µM | IC50 (MDA-MB-231): > 10 µM

COc1cc2cc(c1)Nc1nccc(n1)-c1ccc(cc1)CN(C)CCCNC(=O)C1CCN(CC1)C2 [Compound 66]
IC50 (PLK4 (h)): 1.35 µM | IC50 (CDK1/CyclinB (h)): > 10 µM | IC50 (PLK1 T210D (h)): > 10 µM | IC50 (PLK2 (h)): > 3.02 µM | IC50 (PLK3 (h)): > 10 µM | pIC50 (H1299): < 5.00 | IC50 (U87-MG): 2.88 µM | IC50 (A2780): 6.31 µM | IC50 (MDA-MB-231): 8.32 µM

O=C1NCc2cccc(c2)-c2ccnc(n2)Nc2ccc(C(=O)N3CCOCC3)c(c2)CN2CCC[C@@H]12 [Compound 26]
IC50 (PLK4 (h)): 0.0977 µM | IC50 (CDK1/CyclinB (h)): > 10 µM | IC50 (PLK1 T210D (h)): > 10 µM | IC50 (PLK2 (h)): > 10 µM | IC50 (PLK3 (h)): > 10 µM | pIC50 (H1299): 5.61 | IC50 (U87-MG): > 10 µM | IC50 (A2780): 4.17 µM | IC50 (MDA-MB-231): 8.13 µM

O=C1NCc2cccc(c2)-c2ccnc(n2)Nc2cccc(c2)CN[C@H]1CO [Compound 187]
IC50 (PLK4 (h)): 1.07 µM | IC50 (CDK1/CyclinB (h)): 0.646 µM | IC50 (PLK1 T210D (h)): > 10 µM | IC50 (PLK2 (h)): > 10 µM | IC50 (PLK3 (h)): > 10 µM | pIC50 (H1299): 5.21 | IC50 (U87-MG): > 10 µM | IC50 (A2780): 5.5 µM | IC50 (MDA-MB-231): 7.94 µM

CN1CCC(NC(=O)c2cc3cc(c2)Nc2nccc(n2)-c2cccc(c2)CNC(=O)[C@@H]2CCCN2C3)CC1 [Compound 38]
IC50 (PLK4 (h)): 0.263 µM | IC50 (CDK1/CyclinB (h)): 1.66 µM | IC50 (PLK1 T210D (h)): > 10 µM | IC50 (PLK2 (h)): > 10 µM | IC50 (PLK3 (h)): > 3.02 µM | pIC50 (H1299): < 5.00 | IC50 (U87-MG): 1 µM | IC50 (A2780): 2.69 µM | IC50 (MDA-MB-231): 6.31 µM

O=C1NCc2cc(ccc2N2CCOCC2)Nc2nccc(n2)-c2cccc(c2)CN2CCC[C@@H]12 [Compound 15]
IC50 (PLK4 (h)): 0.575 µM | IC50 (CDK1/CyclinB (h)): > 10 µM | IC50 (PLK1 T210D (h)): > 10 µM | IC50 (PLK2 (h)): > 10 µM | IC50 (PLK3 (h)): > 10 µM | pIC50 (H1299): < 5.00 | IC50 (U87-MG): 7.94 µM | IC50 (A2780): 7.08 µM | IC50 (MDA-MB-231): > 10 µM
